Data from ChEMBL document CHEMBL3885881, “DrugMatrix”.
“And” between values parts separate entries of the source, which are not always exact repeats. Identical values can stand only once.

Species: Rattus norvegicus
Test: DrugMatrix - Regimen: Daily Repeat
Format: toxicity, organism-based, Sprague-Dawley
Design: regimen Daily Repeat, gender Male, age 6-8 weeks
Settings: in vivo, ip, route intraperitoneal, vehicle 100 % SALINE; for ABSOLUTE BASOPHIL / ABSOLUTE EOSINOPHIL / ABSOLUTE LYMPHOCYTE / ABSOLUTE MONOCYTE / ABSOLUTE SEGMENTED NEUTROPHIL / BASOPHIL / EOSINOPHIL / ERYTHROCYTE COUNT / HEMATOCRIT / HEMOGLOBIN / LEUKOCYTE COUNT / LYMPHOCYTE / MEAN CORPUSCULAR HEMOGLOBIN / MEAN CORPUSCULAR HEMOGLOBIN CONCENTRATION / MEAN CORPUSCULAR VOLUME / MONOCYTE / NEUTROPHIL / PLATELET COUNT: tissue Blood
[1] = 0 mg/kg, 120 h, dose level Control, time 5 day
[2] = 0 mg/kg, 120 h, tissue Plasma, dose level Control, time 5 day
[3] = 0 mg/kg, […], dose level Control, time 14 day
[4] = 0 mg/kg, […], dose level Control, time 28 day
[5] = 0 mg/kg, […], tissue Plasma, dose level Control, time 14 day
[6] = 0 mg/kg, […], tissue Plasma, dose level Control, time 28 day
[7] = 2 mg/kg, 120 h, dose level High, time 5 day

Q: What does the source list for LEAD (II) ACETATE?
A: ABSOLUTE BASOPHIL [1]: 32 cells/µL; ABSOLUTE EOSINOPHIL [1]: 110 cells/µL; ABSOLUTE LYMPHOCYTE [1]: 6630 cells/µL; ABSOLUTE MONOCYTE [1]: 140 cells/µL; ABSOLUTE SEGMENTED NEUTROPHIL [1]: 1170 cells/µL; BASOPHIL [1]: 0.38% and 0.35%; EOSINOPHIL [1]: 1.28% and 0.62%; ERYTHROCYTE COUNT [1]: 7.45 x10E6/uL and 7.26 x10E6/uL; HEMATOCRIT [1]: 45.74% and 47.97%; HEMOGLOBIN [1]: 14.72 G/DL and 15.38 G/DL; LEUKOCYTE COUNT [1]: 8.11 x10E3/uL and 8.68 x10E3/uL; LYMPHOCYTE [1]: 81.3% and 86.77%; MEAN CORPUSCULAR HEMOGLOBIN [1]: 19.76 pg and 21.18 pg; MEAN CORPUSCULAR HEMOGLOBIN CONCENTRATION [1]: 32.16 G/DL and 32.05 G/DL; MEAN CORPUSCULAR VOLUME [1]: 61.38 fL and 66.15 fL; MONOCYTE [1]: 1.76% and 1.57%; NEUTROPHIL [1]: 14.9% and 9.53%; PLATELET COUNT [1]: 1322.4 x10E3/uL and 1786 x10E3/uL; ALANINE AMINOTRANSFERASE [2]: 25.8 u/L and 20.5 u/L; ALBUMIN [2]: 3.64 G/DL and 4.35 G/DL; ALKALINE PHOSPHATASE [2]: 300 u/L; ASPARTATE AMINOTRANSFERASE [2]: 81.4 u/L and 86.75 u/L; BLOOD UREA NITROGEN [2]: 14.4 mg/dL and 17 mg/dL; CARBON DIOXIDE [2]: 29 mmol/L; CHOLESTEROL [2]: 69.2 mg/dL and 51.25 mg/dL; CREATINE PHOSPHOKINASE [2]: 303.2 u/L and 384.75 u/L; CREATININE [2]: 0.56 mg/dL and 0.47 mg/dL; GLUCOSE [2]: 125.4 mg/dL and 128.75 mg/dL; LACTATE DEHYDROGENASE [2]: 105.4 u/L and 145 u/L; LIPASE [2]: 22.4 u/L and 13.25 u/L; PHOSPHORUS [2]: 11.8 mg/dL; POTASSIUM [2]: 5.52 MEQ/L and 6.58 MEQ/L; SODIUM [2]: 147 MEQ/L and 151 MEQ/L; TOTAL BILIRUBIN [2]: 0.2 mg/dL and 0.33 mg/dL; TOTAL PROTEIN [2]: 6.1 G/DL and 6.53 G/DL; URIC ACID [2]: 1.06 mg/dL and 1.95 mg/dL; ABSOLUTE BASOPHIL [3]: 130 cells/µL; ABSOLUTE EOSINOPHIL [3]: 140 cells/µL; ABSOLUTE LYMPHOCYTE [3]: 13500 cells/µL; ABSOLUTE MONOCYTE [3]: 400 cells/µL; ABSOLUTE SEGMENTED NEUTROPHIL [3]: 2330 cells/µL; HEMATOCRIT [3]: 45.98%; HEMOGLOBIN [3]: 15.17 G/DL; MEAN CORPUSCULAR VOLUME [3]: 59.4 fL; NEUTROPHIL [3]: 14.14%; ABSOLUTE BASOPHIL [4]: 91 cells/µL; ABSOLUTE EOSINOPHIL [4]: 110 cells/µL; ABSOLUTE LYMPHOCYTE [4]: 9910 cells/µL; ABSOLUTE MONOCYTE [4]: 210 cells/µL; ABSOLUTE SEGMENTED NEUTROPHIL [4]: 1560 cells/µL; BASOPHIL [4]: 0.77%; EOSINOPHIL [4]: 0.92%; ERYTHROCYTE COUNT [4]: 8.21 x10E6/uL; HEMATOCRIT [4]: 47.53%; HEMOGLOBIN [4]: 15.65 G/DL; LEUKOCYTE COUNT [4]: 11.91 x10E3/uL; LYMPHOCYTE [4]: 83.34%; MEAN CORPUSCULAR HEMOGLOBIN [4]: 19.07 pg; MEAN CORPUSCULAR HEMOGLOBIN CONCENTRATION [4]: 32.93 G/DL; MEAN CORPUSCULAR VOLUME [4]: 57.9 fL; MONOCYTE [4]: 1.68%; NEUTROPHIL [4]: 12.97%; PLATELET COUNT [4]: 1323.8 x10E3/uL; ALBUMIN [5]: 3.66 G/DL; CARBON DIOXIDE [5]: 25 mmol/L; CHLORIDE [5]: 107 MEQ/L; CREATINE PHOSPHOKINASE [5]: 410.25 u/L; SODIUM [5]: 149.2 MEQ/L; URIC ACID [5]: 0.94 mg/dL; ALANINE AMINOTRANSFERASE [6]: 30 u/L; ALBUMIN [6]: 3.71 G/DL; ALKALINE PHOSPHATASE [6]: 186.8 u/L; ASPARTATE AMINOTRANSFERASE [6]: 78.2 u/L; BLOOD UREA NITROGEN [6]: 14.2 mg/dL; CHOLESTEROL [6]: 44.9 mg/dL; CREATINE PHOSPHOKINASE [6]: 334.3 u/L; CREATININE [6]: 0.6 mg/dL; GLUCOSE [6]: 147.2 mg/dL; LACTATE DEHYDROGENASE [6]: 123.1 u/L; LIPASE [6]: 9.6 u/L; PHOSPHORUS [6]: 10.01 mg/dL; POTASSIUM [6]: 6.57 MEQ/L; SODIUM [6]: 149.5 MEQ/L; TOTAL BILIRUBIN [6]: 0.21 mg/dL; TOTAL PROTEIN [6]: 6.66 G/DL; URIC ACID [6]: 1.26 mg/dL; ABSOLUTE BASOPHIL [7]: 120 cells/µL; ABSOLUTE EOSINOPHIL [7]: 150 cells/µL; ABSOLUTE LYMPHOCYTE [7]: 10100 cells/µL; ABSOLUTE MONOCYTE [7]: 250 cells/µL; ABSOLUTE SEGMENTED NEUTROPHIL [7]: 2470 cells/µL
